Test: Evaluation of the Tmax of Hydrochlorothiazide following oral administration of hydrochlorothiazide
Format: ADME, organism-based
Settings: human, in vivo, dosed compound id 30, dosed compound name HYDROCHLOROTHIAZIDE, tissue Plasma

Tmax: 2 h
SMILES: NS(=O)(=O)c1cc2c(cc1Cl)NCNS2(=O)=O [HYDROCHLOROTHIAZIDE]
